# From ChEMBL document CHEMBL3734730, “Discovery of novel 2-benzylisoquinolin-1(2H)-ones as potent vasodilative agents” (Bioorg Med Chem Lett, 2015)
# Calls of active or inactive are those of the source. The calls are words filed in the database; no cut-off is given here.
# Test system: Rattus norvegicus
# Assay: Antihypertensive activity in SHR rat assessed as reduced diastolic pressure at 4 mg/kg, po after 2 hrs by tail-cuff plethysmography (reference value: 2 mmHg)
# Assay type: functional, Blood
# Settings: not given
row,SMILES,Activity [mmHg]
1,COc1cc(Cn2ccc3cccc(OC)c3c2=O)cc(OC)c1OC,39
2,COc1ccc(Cn2ccc3cccc(OC)c3c2=O)cc1,44

# Test system: not listed separately
# Assay: Vasodilative activity in isolated Sprague-Dawley rat coronary artery assessed as reduction in KCl-induced contraction by wire myograph method relative to control
# Assay type: functional, tissue-based
# Settings: not given
EC50 [µM],SMILES,Emax [%]
2,COc1ccc(Cn2ccc3cccc(OC)c3c2=O)cc1,107

# Test system: Rattus norvegicus
# Assay: Antihypertensive activity in SHR rat assessed as reduced diastolic pressure at 1 mg/kg, po after 2 hrs by tail-cuff plethysmography (reference value: 2 mmHg)
# Assay type: functional, Blood
# Settings: not given
row,SMILES,Activity [mmHg]
1,COc1cc(Cn2ccc3cccc(OC)c3c2=O)cc(OC)c1OC,1
2,COc1ccc(Cn2ccc3cccc(OC)c3c2=O)cc1,10

# Test system: not listed separately
# Assay: Vasodilative activity in isolated Sprague-Dawley rat renal arterial ring assessed as reduction in KCl-induced contraction by wire myograph method relative to control
# Assay type: functional
# Settings: Renal artery
EC50 [µM],SMILES,Emax [%]
0.631,COc1ccc(Cn2ccc3cccc(OC)c3c2=O)cc1,122

# Test system: Rattus norvegicus
# Assay: Antihypertensive activity in SHR rat assessed as reduced systolic pressure at 4 mg/kg, po after 5 hrs by tail-cuff plethysmography
# Assay type: functional, Blood
# Settings: not given
row,SMILES,Activity [mmHg]
1,COc1ccc(Cn2ccc3cccc(OC)c3c2=O)cc1,6

# Test system: not listed separately
# Assay: Vasodilative activity in isolated Sprague-Dawley rat Superior mesenteric arterial ring assessed as reduction in KCl-induced contraction by wire myograph method relative to control
# Assay type: functional
# Settings: not given
EC50 [µM],SMILES,Rmax [%]
6.31,COc1cc(OC)c2c(=O)n(Cc3cc(OC)c(OC)c(OC)c3)ccc2c1,89.5
25.1,O=c1c2cc(O)ccc2ccn1Cc1ccccc1,60.6
0.398,COc1ccc2c(=O)n(Cc3ccc(OCc4ccc(F)cc4)c(OC)c3)ccc2c1,94.3
0.251,COc1cc(Cn2ccc3cccc(OC)c3c2=O)cc(OC)c1OC,98.7
1,COc1cc(OC)c2c(=O)n(Cc3ccc(OC)c(OC)c3)ccc2c1,76.4
3.98,COc1cc2ccn(Cc3cccc(F)c3)c(=O)c2cc1OC,54.2
0.000316,CCOC(=O)C1=C(C)NC(C)=C(C(=O)OC)C1c1cccc([N+](=O)[O-])c1 (stereo not given) [NITRENDIPINE],99.8
5.01,COc1cc2ccn(Cc3cccc(N)c3)c(=O)c2cc1OC,52.3
0.501,COc1cc(OC)c2c(=O)n(Cc3ccc(OCc4ccc(F)cc4)c(OC)c3)ccc2c1,75.3
2.51,COc1cccc2ccn(Cc3ccccc3)c(=O)c12,71.3
0.501,COc1cc(O)c2c(=O)n(Cc3ccc(OC)c(OC)c3)ccc2c1,91.6

# Continued, compound first:
SMILES,EC50 [µM],Rmax [%]
COc1ccc2c(=O)n(Cc3ccccc3)ccc2c1,2,61.8
COc1cc2ccn(Cc3cc(OC)c(OC)c(OC)c3)c(=O)c2cc1OC,15.8,73.1
COC(=O)c1cccc(Cn2ccc3cc4c(cc3c2=O)OCO4)c1,3.98,51.4
COc1cc2ccn(Cc3cccc([N+](=O)[O-])c3)c(=O)c2cc1OC,2,67.4
COc1ccc2c(=O)n(Cc3cc(OC)c(OC)c(OC)c3)ccc2c1,2,84
O=c1c2ccc(O)cc2ccn1Cc1ccccc1,3.16,74.2
COc1ccc2c(=O)n(Cc3ccc(OC)c(OC)c3)ccc2c1,3.16,84.7
COc1ccc(Cn2ccc3cccc(OC)c3c2=O)cc1,0.2,106
COc1ccc(Cn2ccc3cc(OC)ccc3c2=O)cc1,0.794,90.8

# Test system: not listed separately
# Assay: Vasodilative activity in isolated Sprague-Dawley rat second-order mesenteric arterial ring assessed as reduction in KCl-induced contraction by wire myograph method relative to control
# Assay type: functional
# Settings: Mesenteric artery
EC50 [µM],SMILES,Emax [%]
0.02,COc1ccc(Cn2ccc3cccc(OC)c3c2=O)cc1,95.4

# Test system: Rattus norvegicus
# Assay: Antihypertensive activity in SHR rat assessed as reduced systolic pressure at 4 mg/kg, po after 1 hr by tail-cuff plethysmography
# Assay type: functional, Blood
# Settings: not given
row,SMILES,Activity [mmHg]
1,COc1ccc(Cn2ccc3cccc(OC)c3c2=O)cc1,7

# Test system: Rattus norvegicus
# Assay: Antihypertensive activity in SHR rat assessed as reduced systolic pressure at 4 mg/kg, po after 2 hrs by tail-cuff plethysmography (reference value: 2 mmHg)
# Assay type: functional, Blood
# Settings: not given
row,SMILES,Activity [mmHg]
1,COc1cc(Cn2ccc3cccc(OC)c3c2=O)cc(OC)c1OC,34
2,COc1ccc(Cn2ccc3cccc(OC)c3c2=O)cc1,38

# Test system: not listed separately
# Assay: Vasodilative activity in isolated Sprague-Dawley rat Superior mesenteric arterial ring assessed as reduction in KCl-induced contraction at 10^-5 by wire myograph method
# Assay type: functional
# Design: scale not given: the % may be the effect or the level left
# Settings: not given
row,SMILES,Activity [%]
1,COc1ccc2c(=O)n(Cc3ccccc3)ccc2c1,60.1
2,COc1cc2ccn(Cc3cc(OC)c(OC)c(OC)c3)c(=O)c2cc1OC,48.4
3,COc1cc(OC)c2c(=O)n(Cc3cc(OC)c(OC)c(OC)c3)ccc2c1,53.1
4,COC(=O)c1cccc(Cn2ccc3cc4c(cc3c2=O)OCO4)c1,50.6
5,O=c1c2cc(O)ccc2ccn1Cc1ccccc1,48.5
6,COc1ccc2c(=O)n(Cc3ccc(OCc4ccc(F)cc4)c(OC)c3)ccc2c1,82.4
7,COc1cc2ccn(Cc3cccc([N+](=O)[O-])c3)c(=O)c2cc1OC,57.4
8,COc1cc2ccn(Cc3ccc(F)cc3)c(=O)c2cc1OC,35.2
9,COc1cc2ccn(Cc3ccc(Cl)c(Cl)c3)c(=O)c2cc1OC,26.6
10,COc1cc(Cn2ccc3cccc(OC)c3c2=O)cc(OC)c1OC,93.8
11,COc1cc(OC)c2c(=O)n(Cc3ccc(OC)c(OC)c3)ccc2c1,66.8
12,COc1cc2ccn(Cc3cccc(F)c3)c(=O)c2cc1OC,54
13,CCOC(=O)C1=C(C)NC(C)=C(C(=O)OC)C1c1cccc([N+](=O)[O-])c1 (stereo not given) [NITRENDIPINE],99.9
14,COc1ccc2c(=O)n(Cc3cc(OC)c(OC)c(OC)c3)ccc2c1,72
15,COc1cc2ccn(Cc3ccccc3)c(=O)c2cc1OC,42.3
16,O=C(O)c1cccc(Cn2ccc3cc4c(cc3c2=O)OCO4)c1,34.2
17,O=c1c2ccc(O)cc2ccn1Cc1ccccc1,64.3
18,COc1ccc2c(=O)n(Cc3ccc(OC)c(OC)c3)ccc2c1,59
19,COc1cc2ccn(Cc3cccc(N)c3)c(=O)c2cc1OC,51
20,COc1cc(OC)c2c(=O)n(Cc3ccc(OCc4ccc(F)cc4)c(OC)c3)ccc2c1,74.1
21,COC(=O)c1cccc(Cn2ccc3cc(OC)c(OC)cc3c2=O)c1,37.6
22,COc1ccc(Cn2ccc3cccc(OC)c3c2=O)cc1,96.3
23,COc1cccc2ccn(Cc3ccccc3)c(=O)c12,63.2
24,COc1cc(O)c2c(=O)n(Cc3ccc(OC)c(OC)c3)ccc2c1,81.3
25,COc1ccc(Cn2ccc3cc(OC)ccc3c2=O)cc1,83.7

# Test system: not listed separately
# Assay: Vasodilative activity in isolated Sprague-Dawley rat mesenteric arterial ring assessed as reduction in phenylephrine-induced contraction at 10 uM pretreated for 30 mins followed by addition of 10^-8 to 10^-4 M phenylephrine by wire myograph method relative to control
# Assay type: functional
# Settings: Mesenteric artery
row,SMILES,inhibition
1,COc1cc(Cn2ccc3cccc(OC)c3c2=O)cc(OC)c1OC,Active
2,COc1ccc(Cn2ccc3cccc(OC)c3c2=O)cc1,Active

# Test system: Rattus norvegicus
# Assay: Antihypertensive activity in SHR rat assessed as reduced diastolic pressure at 2 mg/kg, po after 2 hrs by tail-cuff plethysmography (reference value: 2 mmHg)
# Assay type: functional, Blood
# Settings: not given
row,SMILES,Activity [mmHg]
1,COc1cc(Cn2ccc3cccc(OC)c3c2=O)cc(OC)c1OC,12
2,CCOC(=O)C1=C(C)NC(C)=C(C(=O)OC)C1c1cccc([N+](=O)[O-])c1 (stereo not given) [NITRENDIPINE],5
3,COc1ccc(Cn2ccc3cccc(OC)c3c2=O)cc1,16

# Test system: Rattus norvegicus
# Assay: Antihypertensive activity in SHR rat assessed as reduced diastolic pressure at 8 mg/kg, po after 2 hrs by tail-cuff plethysmography (reference value: 2 mmHg)
# Assay type: functional, Blood
# Settings: not given
row,SMILES,Activity [mmHg]
1,COc1cc(Cn2ccc3cccc(OC)c3c2=O)cc(OC)c1OC,49
2,COc1ccc(Cn2ccc3cccc(OC)c3c2=O)cc1,53

# Test system: Rattus norvegicus
# Assay: Antihypertensive activity in SHR rat assessed as reduced diastolic pressure at 4 mg/kg, po after 4 hrs by tail-cuff plethysmography
# Assay type: functional
# Settings: not given
row,SMILES,Activity [mmHg]
1,COc1ccc(Cn2ccc3cccc(OC)c3c2=O)cc1,10

# Test system: Rattus norvegicus
# Assay: Antihypertensive activity in SHR rat assessed as reduced diastolic pressure at 4 mg/kg, po after 0.5 hrs by tail-cuff plethysmography
# Assay type: functional, Blood
# Settings: not given
row,SMILES,Activity [mmHg]
1,COc1ccc(Cn2ccc3cccc(OC)c3c2=O)cc1,0

# Test system: not listed separately
# Assay: Vasodilative activity in isolated Sprague-Dawley rat third-order mesenteric arterial ring assessed as reduction in KCl-induced contraction by wire myograph method relative to control
# Assay type: functional
# Settings: Mesenteric artery
EC50 [µM],SMILES,Emax [%]
0.126,COc1ccc(Cn2ccc3cccc(OC)c3c2=O)cc1,99.9

# Test system: Rattus norvegicus
# Assay: Antihypertensive activity in SHR rat assessed as reduced systolic pressure at 8 mg/kg, po after 2 hrs by tail-cuff plethysmography (reference value: 2 mmHg)
# Assay type: functional, Blood
# Settings: not given
row,SMILES,Activity [mmHg]
1,COc1cc(Cn2ccc3cccc(OC)c3c2=O)cc(OC)c1OC,44
2,COc1ccc(Cn2ccc3cccc(OC)c3c2=O)cc1,46

# Test system: Rattus norvegicus
# Assay: Antihypertensive activity in SHR rat assessed as reduced diastolic pressure at 4 mg/kg, po after 1 hr by tail-cuff plethysmography
# Assay type: functional
# Settings: not given
row,SMILES,Activity [mmHg]
1,COc1ccc(Cn2ccc3cccc(OC)c3c2=O)cc1,8

# Test system: Rattus norvegicus
# Assay: Antihypertensive activity in po-dosed SHR rat assessed as reduced systolic pressure after 2 hrs by tail-cuff plethysmography
# Assay type: functional, organism-based
# Settings: Blood
row,SMILES,inhibition
1,COc1cc(Cn2ccc3cccc(OC)c3c2=O)cc(OC)c1OC,Dose-dependent effect
2,COc1ccc(Cn2ccc3cccc(OC)c3c2=O)cc1,Dose-dependent effect

# Test system: Rattus norvegicus
# Assay: Antihypertensive activity in SHR rat assessed as reduced systolic pressure at 1 mg/kg, po after 2 hrs by tail-cuff plethysmography (reference value: 2 mmHg)
# Assay type: functional, Blood
# Settings: not given
row,SMILES,Activity [mmHg]
1,COc1cc(Cn2ccc3cccc(OC)c3c2=O)cc(OC)c1OC,3
2,COc1ccc(Cn2ccc3cccc(OC)c3c2=O)cc1,6

# Test system: not listed separately
# Assay: Vasodilative activity in isolated Sprague-Dawley rat cerebral basilar arterial ring assessed as reduction in KCl-induced contraction by wire myograph method relative to control
# Assay type: functional
# Settings: Basilar artery
EC50 [µM],SMILES,Emax [%]
0.398,COc1ccc(Cn2ccc3cccc(OC)c3c2=O)cc1,103

# Test system: Rattus norvegicus
# Assay: Antihypertensive activity in SHR rat assessed as reduced systolic pressure at 2 mg/kg, po after 2 hrs by tail-cuff plethysmography (reference value: 2 mmHg)
# Assay type: functional, Blood
# Settings: not given
row,SMILES,Activity [mmHg]
1,COc1cc(Cn2ccc3cccc(OC)c3c2=O)cc(OC)c1OC,15
2,CCOC(=O)C1=C(C)NC(C)=C(C(=O)OC)C1c1cccc([N+](=O)[O-])c1 (stereo not given) [NITRENDIPINE],9
3,COc1ccc(Cn2ccc3cccc(OC)c3c2=O)cc1,14

# Test system: Rattus norvegicus
# Assay: Antihypertensive activity in SHR rat assessed as reduced systolic pressure at 4 mg/kg, po after 0.5 hrs by tail-cuff plethysmography
# Assay type: functional
# Settings: not given
row,SMILES,Activity [mmHg]
1,COc1ccc(Cn2ccc3cccc(OC)c3c2=O)cc1,4

# Test system: Rattus norvegicus
# Assay: Antihypertensive activity in po-dosed SHR rat assessed as reduced diastolic pressure after 2 hrs by tail-cuff plethysmography
# Assay type: functional, organism-based
# Settings: Blood
row,SMILES,inhibition
1,COc1cc(Cn2ccc3cccc(OC)c3c2=O)cc(OC)c1OC,Dose-dependent effect
2,COc1ccc(Cn2ccc3cccc(OC)c3c2=O)cc1,Dose-dependent effect
